Source: patent publication US12178917B2, “Beta-lactamase formulations and uses thereof” (Theriva Biologics, Inc., priority 2014, dated 2024)

Key:
intestinal microbiome [1] = test: Whole genome shotgun sequencing and comparative metagenomics of pig fecal samples; assay type: in vivo, gnotobiotic pigs populated with human adult fecal microflora; conditions: for number of bacterial taxa, Genus / number of bacterial taxa, Species / number of bacterial taxa, Strain/sub-species: per treatment group, pig fecal samples
Procedure: In order to study the ability of P3A to protect the intestinal microbiome from antibiotics-induced (e.g., ceftriaxone (CRO)-induced) damage, pig fecal samples obtained from the study described above were subjected to additional genomic analysis. Specifically, the 16S rRNA gene V1V2 region was sequenced. In addition, fecal DNA was subjected to whole genome shotgun sequencing. Shotgun sequencing was performed using Illumina HiSeq RAPID RUN, targeting 100 bp single read with the aim to achieve approximately 10-20 million reads per sample (Table 6),
These sequence data were classified taxonomically to identify microbial communities associated with the pig fecal samples. Taxonomic classification was performed using bioInformatics algorithms and curated genome databases. Briefly, raw, unassembled shotgun sequence reads were probed against curated GeneBook bacterial and viral databases using GENIUS software package for rapid identification of bacteria communities as well as their relative abundance (Hasan of al., 2014, PLoS ONE 9:e97699; Lax et al., 2014, Science 345:1048). The analyses identified 139 bacterial strains, 79 species, and 35 genera among the treatment groups (Table 7).
Comparative metagenomics analyses were performed by creating heatmaps based on the relative abundance of each bacterial strain in each sample (see FIGS. 11A and 11B) and at the bacterial genus level (see FIG. 12) using the NMF R software package (Gaujoux and Seoighe, 2010, BMC Bioinformatics, 11:367). The samples were clustered using the maximum distance function and the Ward Hierarchical Clustering algorithm. The distance function was used to measure the difference in composition between each of the samples. The clustering algorithm used the distances between each of the samples to create a dendrogram that clustered samples with similar compositions, including both the presence and absence of organisms, in the same clades.
Comparative metagenomics analyses were also performed to investigate changes in the microbiome across different treatment groups. For these analyses, the centroid classification method from the PamR package (Tibshirani of al., 2002, PNAS 99:6567), was used to compare the average frequency (absolute abundance) of each bacterial strain in the samples. The deviation of the centroid of each bacterial strain from each study group was graphed by the overall centroid of all the study groups (FIGS. 13A and 13B).
As the number of sequence reads generated from each individual sample was variable, subsamples from each sample were chosen to represent a subset of 10 million reads. This was done to avoid any bias due to different sample sizes and to enable the measurement of the absolute abundance of the bacterial organisms in the samples. Using these subsets to reduce bias, the comparative metagenomics analyses were performed as described previously for FIGS. 13A and 13B by graphing the deviation of the centroid of each bacterial strain from each study group by the overall centroid of all the study groups (FIGS. 14A and 14B).

intestinal microbiome [2] = test: P3A-mediated microbiome protection in humanized pigs, 16S rRNA sequencing of fecal DNA; assay type: in vivo, gnotobiotic pigs populated with human adult fecal microflora; conditions: feces collected on Day 14; antibiotics IP 50 mg/kg 4 days; P3A 75 mg/dose orally 4 times a day 7 days
[3] = tested on: ampicillin-resistant aerobes including those of the phylum Proteobacteria; test: Plating of Day 21 feces on LB+amp plates; assay type: in vivo, gnotobiotic pigs populated with human adult fecal microflora; conditions: aerobic conditions, 37° C.
Procedure: Equal quantities of diluted feces collected from animals at necropsy were plated on LB+amp plates and grown under aerobic conditions at 37° C., The colonies were counted while taking into account the dilution factor.
The gastrointestinal (GI) tract of 5 day old gnotobiotic pigs was populated with human adult fecal microflora. Two days later, animals received antibiotics (clindamycin or CRO, IP, 50 mg/kg) for 4 days. P3A was delivered orally 4 times a day (75 mg/dose) for 7 days beginning the day before CRO administration. Specifically, the P3A delayed-release capsules as described in Examples 1 and 2 were administered to the animals. C. difficile (2.6×10^6 cfu) was delivered orally to all animals on Day 13. Feces were collected on Days 11, 12, 14, 18, 20 directly from the rectum using sterile cotton swabs and at necropsy on Day 21 directly from the intestinal tract. […] The levels of a specific bacterial population expected to be sensitive to CRO, but not to clindamycin, ampicillin-resistant aerobes including those of the phylum Proteobacteria, were assessed by plating equal amounts of Day 21 feces on LB+amp plates. Fecal C. difficile Toxin A and interleukin-8 (ILS) were assessed via ELISA as a measure of C. difficile infection (CDI). Intestinal tracts collected at necropsy on Day 21 were evaluated histologically for signs of CDI.

in vivo = test: in vivo; set-up: species or system Yorkshire piglets; conditions: Yorkshire, pig; for CRO serum levels: iv, 50 mg/kg
Procedure: A total of 10 pigs were treated once a day with IV ceftriaxone (CRO; 50 mg/kg) for a total of 7 days. A cohort of 5 pigs also received oral P3A (75 mg, four times a day), starting the day before CRO treatment and extending one day after CRO was stopped, for a total of 9 days. On Day 2 of CRO treatment, serum was collected 1, 6, and 19 hours after CRO administration. Serum was assayed for CRO levels using a validated high-performance liquid chromatography assay. […] The CRO levels in the serum collected at 19 hours was below the limit of detection of the assay (0.5 ug/mL). For both sets of histograms (1 hour and 6 hours), the left bar is ceftriaxone alone and the right bar is ceftriaxone and P3A.
Another pig study was performed to determine if oral administration of P3A (i.e. SYN-004) had any effect on the systemic levels of antibiotics. For this study, ten Yorkshire piglets, approximately 2 months old and weighing approximately 20 kg were treated with intravenous ceftriaxone (CRO) at 50 mg/kg once a day for seven days. Five animals also received P3A capsules (1 capsule containing 75 mg of P3A, four times a day) beginning the day before CRO treatment and extending to one day after CRO treatment, for a total of nine days. Specifically, the P3A delayed-release capsules as described in Examples 1 and 2 were administered to the animals. On day 2, animals were anesthetized and approximately 9 mls of blood drawn from the vena cava at three timepoints, 1 hour, 6 hours, and 19 hours after CRO administration. Blood was immediately dispensed into a serum separator vacutainer tube. After coagulation, samples were centrifuged and the serum was transferred to a cryovial and stored at −80° C. until analysis. CRO in the serum samples was quantified using a validated high-performance liquid chromatography assay (Owens et al., 2001, Int. J. Antimicrobial Agents, 17:483). A standard curve for CRO was prepared in negative control (untreated) pig serum and contained 6 points ranging from 0.5 to 50 ug/mL. The assay was linear over a range of 0.5 to 50 ug/mL. […]

[4] = species-level centroid classification vs Group 1 (Control)

concentration at 19 h (in vivo) [ng/mL]	CRO serum levels (in vivo; 1 h) [µg/mL]	CRO serum levels (in vivo; 6 h) [µg/mL]	Compound	number of bacterial taxa, Genus (intestinal microbiome [1])	number of bacterial taxa, Species (intestinal microbiome [1])	number of bacterial taxa, Strain/sub-species (intestinal microbiome [1])	abundance of Methanobrevibacter smithii (intestinal microbiome [1]; [4])	abundance of Turicibacter spp (intestinal microbiome [1]; [4])	phylum-level taxonomic classification of bacteria in fecal DNA (intestinal microbiome [2])	bacteria levels on LB+amp plates [3]
< 500	79.43 ± 12.08	5.83 ± 1.15	CO/N=C(\C(=O)N[C@@H]1C(=O)N2C(C(=O)O)=C(CSc3nc(=O)c(=O)[nH]n3C)CS[C@H]12)c1csc(N)n1 [CRO, ceftriaxone]	32	70	102	overabundance	underrepresentation	dysbiosis	at least two log lower levels
			CCC[C@@H]1C[C@@H](C(=O)N[C@@H]([C@H]2O[C@H](SC)[C@H](O)[C@@H](O)[C@H]2O)[C@H](C)Cl)N(C)C1 [clindamycin]	7	12	17				
